Experimental data as given in paper PMC7287882, “Dual miRNases for Triple Incision of miRNA Target: Design Concept and Catalytic Performance” (Molecules, 2020).

Test system: miR-17
Experiment: Ribonuclease activity assay with DC or ON and RNase H, miR-17
Format: biochemical
Details: for total extent of miRNA cleavage in the presence of RNase H: miRNA 1 µM, DC or ON 20 µM, buffer (2) pH 7.8, 37 °C, at plateau, by 2 h
Procedure: It is known that DNA-like antisense oligonucleotides after binding to target RNAs form a substrate for intracellular endonuclease RNases H. RNA hydrolysis in RNA-DNA heteroduplex by RNase H1 occurs at a distance of 6–10 nucleotides from the 5′-end of RNA (approximately one turn of the helix). Our design of the Dual conjugates here was carried out in such a way to ensure that their heteroduplexes with the matching miRNA sequences could serve as potential substrates for RNase H. To achieve that, we ensured that the length of the oligonucleotide recognition motifs A and B within the DC was 8–10 nt, which was expected to be sufficient for interaction and cleavage by RNase H (see Figure 1 and Table 1). As indicated above, a few adenine aromatic basis within each recognition motifs A and B were replaced with 2-aminoadenines to enhance the hybridization ability of the DC with miRNA. […] In order to verify this, as well as to evaluate the ability of RNase H to contribute to the miRNA cleavage catalyzed by DC, we studied the kinetics of the target miRNA cleavage performed (1) by the DC alone; (2) by RNase H, when the target miRNA was hybridized with the nonconjugated Dual oligonucleotide (ON); and (3) by both DC and RNase H present in the same reaction mixture. The study was performed against miR-17, miR-155 and miR-21 using a 20-fold excess of DCs or respective oligonucleotides over the matching miRNA (see Table 1 for sequences).
Figure 6 Cleavage kinetics of 5′-[^32P]-labeled miRNAs by DCs and/or RNase H. (a,d,g). Radioautographs of 18% denaturing PAAG showing the profiles of cleavage of miR-17, miR-155 and miR-21, respectively. Duplexes formed by 5′-[^32P]-miRNA (1 µM) and DC or ON (20 µM) were incubated at 37 °C for 48–72 h. RNase H was taken in the concentration of 5 or 100 u/mL. Lanes Im and T1–imidazole ladder and partial RNA digestion with RNase T1, respectively; control–RNA was incubated in the absence of DC or ON and in the presence of RNase H (100 u/mL); (b,e,h) Time dependency of cleavage of miR-17, miR-155 and miR-21, respectively, by DCs and/or RNase H. Data are presented as mean ± s.e. *—indicates statistically significant difference with p < 0.05; (c,f,i). Positions of miR-17, miR-155 and miR-21 cleavage, respectively, induced by RNase H in duplex with ON (red arrows), and by combination of DC (black arrows) and RNase H. A–2-aminoadenine.
The reaction mixture (10 µL) containing 20 mM Tris-HCl, pH 7.8, 40 mM KCl, 8 mM MgCl2, 1 mM DTT, 0.02 mg/mL BSA, 800 cpm (Cherenkov’s counting) of [^32P]-miRNA, 1 µM unlabeled miRNA, 20 µM either DC or Dual oligonucleotide was incubated at 37 °C for 20 min then RNase H (5 or 100 U/mL) was added and the mixture was further incubated for 48 h. Aliquots were taken at 0, 1, 6, 24 and 48 h then the reaction was quenched, RNA cleavage products were collected and analyzed as described above.

What does the source list for “CTACCTGC–linker 1–[GRLRL]2–linker 2–AAGCACTTTG [miRNA-17-DC, Dual oligonucleotide-peptide conjugate targeted to miR-17: catalytic peptide [LRLRG]2 between two 2-aminoadenine-containing oligodeoxyribonucleotides]”?
total extent of miRNA cleavage in the presence of RNase H (RNase H 5 u/mL): 44%; total extent of miRNA cleavage in the presence of RNase H (RNase H 100 u/mL): 92%; total efficiency of cleavage in the complex with DC relative to the miRNA/ON complex (RNase H at both 5 and 100 u/mL): more than 1.5 fold; increase in the rate of cleavage by DC with RNase H compared with DC alone (after 1 h): up to 10 fold; increase in the rate of cleavage by DC with RNase H compared with RNase H alone (after 1 h): 1.5 fold
